pIC50: −log10 of the molar value. Where a name gives a salt, the structure may show the parent alone.
biological target: MGAT2 Human (Homo sapiens (Human), UniProt Q3SYC2); experiment: MGAT2 Human IC50; assay type: biochemical
Sequence (Q3SYC2 whole entry): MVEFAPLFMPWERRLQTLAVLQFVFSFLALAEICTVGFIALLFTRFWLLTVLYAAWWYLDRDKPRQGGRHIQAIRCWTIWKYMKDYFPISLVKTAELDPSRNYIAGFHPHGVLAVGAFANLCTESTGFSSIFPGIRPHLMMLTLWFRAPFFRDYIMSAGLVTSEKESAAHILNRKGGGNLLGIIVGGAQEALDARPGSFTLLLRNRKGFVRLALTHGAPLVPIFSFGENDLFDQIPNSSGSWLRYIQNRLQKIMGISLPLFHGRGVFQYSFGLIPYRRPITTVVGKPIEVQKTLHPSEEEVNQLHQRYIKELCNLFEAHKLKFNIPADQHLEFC

| Compound | pIC50 |
| --- | --- |
| C[C@H](c1cnc(OCC(F)F)cn1)N1CCc2ccc(S(=O)(=O)Nc3noc(C4CC4)n3)cc2C1 [Example 24, (R)-5-cyclopropyl-3-(2-(1-(5-(2,2-difluoroethoxy)pyrazin-2-yl)ethyl)-1,2,3,4-tetrahydroisoquinoline-7-sulfonamido)-1,2,4-oxadiazol-2-ium 2,2,2-trifluoroacetate] | 7.71 |
| Cc1c(NS(=O)(=O)c2ccc3c(c2)CN([C@H](C)c2cnc(OCC(F)F)cn2)CC3)noc1C(C)(C)C [Example 25, 7-(N-(5-(tert-butyl)-4-methylisoxazol-3-yl)sulfamoyl)-2-((R)-1-(5-(2,2-difluoroethoxy)pyrazin-2-yl)ethyl)-1,2,3,4-tetrahydroisoquinolin-2-ium 2,2,2-trifluoroacetate] | 8.34 |
| C[C@H](c1ccc(OCC2CC(F)(F)C2)nc1)N1CCc2ccc(S(=O)(=O)Nc3noc(C4CC4)n3)cc2C1 [Example 26, (R)-5-cyclopropyl-3-(2-(1-(6-((3,3-difluorocyclobutyl)methoxy)pyridin-3-yl)ethyl)-1,2,3,4-tetrahydroisoquinoline-7-sulfonamido)-1,2,4-oxadiazol-2-ium 2,2,2-trifluoroacetate] | 7.70 |
| Cc1c(NS(=O)(=O)c2ccc3c(c2)CN(C(=O)c2ccc(OCC(F)(F)F)nc2)CC3)noc1C(C)(C)C [Example 27, N-(5-(tert-butyl)-4-methylisoxazol-3-yl)-2-(6-(2,2,2-trifluoroethoxy)nicotinoyl)-1,2,3,4-tetrahydroisoquinoline-7-sulfonamide] | 7.39 |
| Cc1c(NS(=O)(=O)c2ccc3c(c2)CN([C@H](C)c2ccc(OCC4CC(F)(F)C4)nc2)CC3)noc1C(C)(C)C [Example 28, 7-(N-(5-(tert-butyl)-4-methylisoxazol-3-yl)sulfamoyl)-2-((R)-1-(6-((3,3-difluorocyclobutyl)methoxy)pyridin-3-yl)ethyl)-1,2,3,4-tetrahydroisoquinolin-2-ium 2,2,2-trifluoroacetate] | 8.07 |
| Cc1c(NS(=O)(=O)c2ccc3c(c2)CN([C@H](C)c2ccc(OCC(F)(F)F)cc2)CC3)noc1C(C)(C)C [Example 29, 7-(N-(5-(tert-butyl)-4-methylisoxazol-3-yl)sulfamoyl)-2-((R)-1-(4-(2,2,2-trifluoroethoxy)phenyl)ethyl)-1,2,3,4-tetrahydroisoquinolin-2-ium 2,2,2-trifluoroacetate] | 8.02 |
| COCCOc1ccc(C(=O)N2CCc3ccc(S(=O)(=O)Nc4noc(C(C)(C)C)c4C)cc3C2)cn1 [Example 30, N-(5-(tert-butyl)-4-methylisoxazol-3-yl)-2-(6-(2-methoxyethoxy)nicotinoyl)-1,2,3,4-tetrahydroisoquinoline-7-sulfonamide] | 7.51 |
| COCCOc1ccc([C@@H](C)N2CCc3ccc(S(=O)(=O)Nc4cc(C(C)(C)C)on4)cc3C2)cn1 [Example 31, 7-(N-(5-(tert-butyl)isoxazol-3-yl)sulfamoyl)-2-((R)-1-(6-(2-methoxyethoxy)pyridin-3-yl)ethyl)-1,2,3,4-tetrahydroisoquinolin-2-ium 2,2,2-trifluoroacetate] | 7.76 |
| C[C@H](c1ccc(OCC(F)(F)F)nc1)N1CCc2ccc(S(=O)(=O)Nc3noc(C(C)(C)C)c3CO)cc2C1 [Example 32, 7-(N-(5-(tert-butyl)-4-(hydroxymethyl)isoxazol-3-yl)sulfamoyl)-2-((R)-1-(6-(2,2,2-trifluoroethoxy)pyridin-3-yl)ethyl)-1,2,3,4-tetrahydroisoquinolin-2-ium 2,2,2-trifluoroacetate] | 7.70 |
| CCOC(=O)c1c(NS(=O)(=O)c2ccc3c(c2)CN([C@H](C)c2cc(F)cc(F)c2)CC3)noc1C(C)(C)C [Example 33, (R)-ethyl 5-(tert-butyl)-3-(2-(1-(3,5-difluorophenyl)ethyl)-1,2,3,4-tetrahydroisoquinoline-7-sulfonamido)isoxazole-4-carboxylate] | 8.43 |
| CNC(=O)c1c(NS(=O)(=O)c2ccc3c(c2)CN([C@H](C)c2cc(F)cc(F)c2)CC3)noc1C(C)(C)C [Example 34, (R)-5-(tert-butyl)-3-(2-(1-(3,5-difluorophenyl)ethyl)-1,2,3,4-tetrahydroisoquinoline-7-sulfonamido)-N-methylisoxazole-4-carboxamide] | 8.21 |
| CCOc1cnc([C@@H](C)N2CCc3ccc(S(=O)(=O)Nc4noc(C(C)(C)C)c4Cl)cc3C2)cn1 [Example 35, (R)—N-(5-(tert-Butyl)-4-chloroisoxazol-3-yl)-2-(1-(5-ethoxypyrazin-2-yl)ethyl)-1,2,3,4-tetrahydroisoquinoline-7-sulfonamide] | 8.08 |
| CCOc1cnc([C@@H](C)N2CCc3ccc(S(=O)(=O)Nc4noc(C(C)(C)C)c4C)cc3C2)cn1 [Example 36, (R)—N-(5-(tert-butyl)-4-methylisoxazol-3-yl)-2-(1-(5-ethoxypyrazin-2-yl)ethyl)-1,2,3,4-tetrahydroisoquinoline-7-sulfonamide] | 8.46 |
| CCOc1cnc([C@@H](C)N2CCc3ccc(S(=O)(=O)Nc4noc(-c5ccccc5)n4)cc3C2)cn1 [Example 37] | 7.94 |
| CCCc1cnc(NS(=O)(=O)c2ccc3c(c2)CN([C@H](C)c2cc(F)cc(F)c2)CC3)cn1 [Example 38, (R)-2-(1-(3,5-difluorophenyl)ethyl)-N-(5-propylpyrazin-2-yl)-1,2,3,4-tetrahydroisoquinoline-7-sulfonamide] | 8.22 |
| CCCc1c(NS(=O)(=O)c2ccc3c(c2)CN(Cc2ccc(CC)nc2)CC3)noc1C(C)(C)C [Example 39, N-(5-(tert-butyl)-4-propylisoxazol-3-yl)-2-((6-ethylpyridin-3-yl)methyl)-1,2,3,4-tetrahydroisoquinoline-7-sulfonamide] | 7.96 |
| CCc1ccc(CN2CCc3ccc(S(=O)(=O)Nc4noc(C(C)(C)C)c4CC)cc3C2)cn1 [Example 40, N-(5-(tert-butyl)-4-ethylisoxazol-3-yl)-2-((6-ethylpyridin-3-yl)methyl)-1,2,3,4-tetrahydroisoquinoline-7-sulfonamide] | 7.82 |
| CCCc1ccc(CN2CCc3ccc(S(=O)(=O)Nc4noc(C(C)(C)C)c4Br)cc3C2)cn1 [Example 41, N-(4-bromo-5-(tert-butyl)isoxazol-3-yl)-2-((6-propylpyridin-3-yl)methyl)-1,2,3,4-tetrahydroisoquinoline-7-sulfonamide] | 8.17 |
| CCc1ccc([C@@H](C)N2CCc3ccc(S(=O)(=O)Nc4noc(C(C)(C)C)c4C)cc3C2)cn1 [Example 42, (R)—N-(5-(tert-butyl)-4-methylisoxazol-3-yl)-2-(1-(6-ethylpyridin-3-yl)ethyl)-1,2,3,4-tetrahydroisoquinoline-7-sulfonamide] | 8.09 |
| CCCc1ccc([C@@H](C)N2CCc3ccc(S(=O)(=O)Nc4noc(C(C)(C)C)c4Br)cc3C2)cn1 [Example 43, (R)—N-(4-bromo-5-(tert-butyl)isoxazol-3-yl)-2-(1-(6-propylpyridin-3-yl)ethyl)-1,2,3,4-tetrahydroisoquinoline-7-sulfonamide] | 8.80 |
| CC(C)(C)c1onc(NS(=O)(=O)c2cnc3c(c2)CN(Cc2cc(F)cc(F)c2)CC3)c1Br [Example 44, N-(4-bromo-5-(tert-butyl)isoxazol-3-yl)-6-(3,5-difluorobenzyl)-5,6,7,8-tetrahydro-1,6-naphthyridine-3-sulfonamide Trifluoroacetate] | 6.93 |
| CCCc1cnc(NS(=O)(=O)c2ccc3c(c2)CN([C@H](C)c2ccc(OCC(F)(F)F)nc2)CC3)cn1 [Example 45, 7-(N-(5-propylpyrazin-2-yl)sulfamoyl)-2-((R)-1-(6-(2,2,2-trifluoroethoxy)pyridin-3-yl)ethyl)-1,2,3,4-tetrahydroisoquinolin-2-ium 2,2,2-trifluoroacetate] | 8.14 |
| CCc1cnc(NS(=O)(=O)c2ccc3c(c2)CN([C@H](C)c2ccc(OCC(F)F)nc2)CC3)cn1 [Example 46, 2-((R)-1-(6-(2,2-difluoroethoxy)pyridin-3-yl)ethyl)-7-(N-(5-ethylpyrazin-2-yl)sulfamoyl)-1,2,3,4-tetrahydroisoquinolin-2-ium 2,2,2-trifluoroacetate] | 7.90 |
| CC(C)Nc1cnc(NS(=O)(=O)c2ccc3c(c2)CN([C@H](C)c2ccc(OCC(F)(F)F)nc2)CC3)cn1 [Example 47, 7-(N-(5-(isopropylamino)pyrazin-2-yl)sulfamoyl)-2-((R)-1-(6-(2,2,2-trifluoroethoxy)pyridin-3-yl)ethyl)-1,2,3,4-tetrahydroisoquinolin-2-ium 2,2,2-trifluoroacetate] | 7.86 |
| COCCOc1ccc([C@@H](C)N2CCc3ccc(S(=O)(=O)Nc4cnc(C5CC5)cn4)cc3C2)cn1 [Example 48, 7-(N-(5-cyclopropylpyrazin-2-yl)sulfamoyl)-2-((R)-1-(6-(2-methoxyethoxy)pyridin-3-yl)ethyl)-1,2,3,4-tetrahydroisoquinolin-2-ium 2,2,2-trifluoroacetate] | 7.67 |
| COc1ccc(NS(=O)(=O)c2ccc3c(c2)CN([C@H](C)c2ccc(OCC(F)(F)F)nc2)CC3)nn1 [Example 49, (R)—N-(6-methoxypyridazin-3-yl)-2-(1-(6-(2,2,2-trifluoroethoxy)pyridin-3-yl)ethyl)-1,2,3,4-tetrahydroisoquinoline-7-sulfonamide] | 8.06 |
| C[C@H](c1ccc(OCC(F)(F)F)nc1)N1CCc2ccc(S(=O)(=O)Nc3ccc(C(C)(C)C)nn3)cc2C1 [Example 50, 7-(N-(6-(tert-butyl)pyridazin-3-yl)sulfamoyl)-2-((R)-1-(6-(2,2,2-trifluoroethoxy)pyridin-3-yl)ethyl)-1,2,3,4-tetrahydroisoquinolin-2-ium 2,2,2-trifluoroacetate] | 8.42 |
| CCOC(=O)c1noc(NS(=O)(=O)c2ccc3c(c2)CN([C@H](C)c2cc(F)cc(F)c2)CC3)n1 [Example 51, (R)-ethyl 5-(2-(1-(3,5-difluorophenyl)ethyl)-1,2,3,4-tetrahydroisoquinoline-7-sulfonamido)-1,2,4-oxadiazole-3-carboxylate] | 7.85 |
| C[C@H](c1cc(F)cc(F)c1)N1CCc2ccc(S(=O)(=O)Nc3nc(C(N)=O)no3)cc2C1 [Example 52, (R)-5-(2-(1-(3,5-difluorophenyl)ethyl)-1,2,3,4-tetrahydroisoquinoline-7-sulfonamido)-1,2,4-oxadiazole-3-carboxamide] | 7.51 |
| CCNC(=O)c1noc(NS(=O)(=O)c2ccc3c(c2)CN([C@H](C)c2cc(F)cc(F)c2)CC3)n1 [Example 53] | 8.15 |

Source: patent US10065945B2, “Isoquinoline derivatives as MGAT2 inhibitors” (Merck Sharp & Dohme Corp., priority 2014, dated 2018)
